Among the data in ChEMBL document CHEMBL4004803, “Syntheses and antibacterial activity of soluble 9-bromo substituted indolizinoquinoline-5,12-dione derivatives” (Eur J Med Chem, 2017) are MIC and Ratio values, retold here.

Assay type in all cases: functional
For experiment [1], the system named is Staphylococcus aureus. Briefly: Antibacterial activity against methicillin-resistant Staphylococcus aureus 102849 clinical isolate after 20 to 24 hrs by two-fold microdilution method.
Experiment [2] relates to Staphylococcus aureus. Briefly: Antibacterial activity against methicillin-resistant Staphylococcus aureus 20106-2 clinical isolate after 20 to 24 hrs by two-fold microdilution method.
In experiment [3] the test system is Staphylococcus aureus. Briefly: Antibacterial activity against methicillin-resistant Staphylococcus aureus 523005 clinical isolate after 20 to 24 hrs by two-fold microdilution method.
The test system of experiment [4] is Staphylococcus aureus. Briefly: Antibacterial activity against methicillin-resistant Staphylococcus aureus 10281-2 clinical isolate after 20 to 24 hrs by two-fold microdilution method.
Experiment [5] concerns Staphylococcus aureus. Description: Antibacterial activity against methicillin-resistant Staphylococcus aureus 1113041 clinical isolate after 20 to 24 hrs by two-fold microdilution method.
Experiment [6] concerns Staphylococcus aureus. Briefly: Antibacterial activity against methicillin-resistant Staphylococcus aureus 110834 clinical isolate after 20 to 24 hrs by two-fold microdilution method.
Experiment [7] deals with Staphylococcus aureus. Description: Antibacterial activity against methicillin-resistant Staphylococcus aureus 112430 clinical isolate after 20 to 24 hrs by two-fold microdilution method.
Experiment [8] has as its system Staphylococcus aureus. Briefly: Antibacterial activity against methicillin-resistant Staphylococcus aureus 530231 clinical isolate after 20 to 24 hrs by two-fold microdilution method.
In experiment [9] the test system is Staphylococcus aureus. Briefly: Antibacterial activity against methicillin-resistant Staphylococcus aureus 1012029 clinical isolate after 20 to 24 hrs by two-fold microdilution method.
The subject of experiment [10] is Staphylococcus aureus. Briefly: Antibacterial activity against methicillin-resistant Staphylococcus aureus 110325 clinical isolate after 20 to 24 hrs by two-fold microdilution method.
Experiment [11] deals with Staphylococcus aureus. Description: Antibacterial activity against methicillin-resistant Staphylococcus aureus 724244 clinical isolate after 20 to 24 hrs by two-fold microdilution method.
Experiment [12] has as its system Staphylococcus aureus. Briefly: Antibacterial activity against methicillin-resistant Staphylococcus aureus 19950 clinical isolate after 20 to 24 hrs by two-fold microdilution method.
The subject of experiment [13] is Staphylococcus aureus. Description: Antibacterial activity against methicillin-resistant Staphylococcus aureus 503025 clinical isolate after 20 to 24 hrs by two-fold microdilution method.
Experiment [14] relates to Staphylococcus aureus. Briefly: Antibacterial activity against methicillin-resistant Staphylococcus aureus 531026 clinical isolate after 20 to 24 hrs by two-fold microdilution method.
Experiment [15] relates to Staphylococcus aureus. Description: Antibacterial activity against methicillin-resistant Staphylococcus aureus 109016 clinical isolate after 20 to 24 hrs by two-fold microdilution method.
In experiment [16] the test system is Staphylococcus aureus. Briefly: Antibacterial activity against methicillin-resistant Staphylococcus aureus 214026 clinical isolate after 20 to 24 hrs by two-fold microdilution method.
In experiment [17] the test system is Staphylococcus aureus. Briefly: Potency index, ratio of vancomycin MIC to test compound MIC for […] Staphylococcus aureus ATCC 25923.
Experiment [18] has as its system Staphylococcus aureus. Description: Potency index, ratio of vancomycin MIC50 to test compound MIC50 for methicillin-resistant Staphylococcus aureus.
For experiment [19], the system named is Staphylococcus aureus. Description: Potency index, ratio of vancomycin MIC90 to test compound MIC90 for methicillin-resistant Staphylococcus aureus.

Values after ≈ are worked out from the molar mass of the structure shown. Some results are limits rather than exact numbers.

Take `O=C1c2cccnc2C(=O)c2c1c(C(=O)OCCCCN1CCOCC1)c1ccc(Br)cn21`: the MIC in experiment [1] was found to be 0.5 µg/mL (≈ 0.976 µM); in [2] it was 0.5 µg/mL (≈ 0.976 µM); in experiment [3], 0.5 µg/mL (≈ 0.976 µM); in [4], 0.5 µg/mL (≈ 0.976 µM); in [5] it was 0.5 µg/mL (≈ 0.976 µM); in experiment [6], 0.25 µg/mL (≈ 0.488 µM). The MIC in [7] is 0.5 µg/mL (≈ 0.976 µM); in experiment [8] it was 0.5 µg/mL (≈ 0.976 µM); in [9], 0.25 µg/mL (≈ 0.488 µM); in experiment [10], 0.25 µg/mL (≈ 0.488 µM); in experiment [11], 0.125 µg/mL (≈ 0.244 µM); in experiment [12] it was 1 µg/mL (≈ 1.95 µM). For the same molecule, the MIC stood at 1 µg/mL (≈ 1.95 µM) in experiment [13], 0.25 µg/mL (≈ 0.488 µM) in experiment [14], 0.5 µg/mL (≈ 0.976 µM) in experiment [15] and 0.063 µg/mL (≈ 0.123 µM) in [16].
With `O=C1c2cccnc2C(=O)c2c1c(C(=O)OCCCCCN1CCOCC1)c1ccc(Br)cn21`, the MIC is 0.063 µg/mL (≈ 0.12 µM) in experiment [1]; 0.125 µg/mL (≈ 0.237 µM) in experiment [2]; 0.031 µg/mL (≈ 0.0589 µM) in experiment [3]; not above 0.0078 µg/mL in experiment [4]; not above 0.0078 µg/mL in [5]; 0.031 µg/mL (≈ 0.0589 µM) in [6]. In addition, the MIC in experiment [7] was not above 0.0078 µg/mL; in experiment [8], 0.031 µg/mL (≈ 0.0589 µM); in experiment [9], not above 0.0078 µg/mL; in [10] it was not above 0.0078 µg/mL; in experiment [11] it was not above 0.0078 µg/mL; in [12], 0.031 µg/mL (≈ 0.0589 µM). Moreover, the MIC was 0.031 µg/mL (≈ 0.0589 µM) in [13], not above 0.0078 µg/mL in experiment [14], not above 0.0078 µg/mL in experiment [15] and 0.063 µg/mL (≈ 0.12 µM) in experiment [16].
As to `CN(C)CCCCCOC(=O)c1c2c(n3cc(Br)ccc13)C(=O)c1ncccc1C2=O`, the minimal inhibitory concentration (MIC) in experiment [1] is 0.25 µg/mL (≈ 0.516 µM); in [2], 1 µg/mL (≈ 2.06 µM); in [3] it was 0.5 µg/mL (≈ 1.03 µM); in experiment [4], 0.25 µg/mL (≈ 0.516 µM); in [5] it was 0.5 µg/mL (≈ 1.03 µM); in [6] it was 0.5 µg/mL (≈ 1.03 µM). Moreover, the minimum inhibitory concentration (MIC) in experiment [7] is 0.5 µg/mL (≈ 1.03 µM); in experiment [8], 0.25 µg/mL (≈ 0.516 µM); in experiment [9], 0.25 µg/mL (≈ 0.516 µM); in [10], 0.125 µg/mL (≈ 0.258 µM); in [11] it was 0.125 µg/mL (≈ 0.258 µM); in [12], 0.5 µg/mL (≈ 1.03 µM). The MIC came to 0.5 µg/mL (≈ 1.03 µM) in experiment [13], 0.5 µg/mL (≈ 1.03 µM) in [14], 0.25 µg/mL (≈ 0.516 µM) in [15] and 0.125 µg/mL (≈ 0.258 µM) in [16]. Moreover, the Ratio in [17] stood at 256.
Consider `CN1CCN(CCCCCCOC(=O)c2c3c(n4cc(Br)ccc24)C(=O)c2ncccc2C3=O)CC1`, for which the MIC in experiment [1] was 0.125 µg/mL (≈ 0.226 µM); in experiment [2], 0.25 µg/mL (≈ 0.452 µM); in experiment [3], 0.25 µg/mL (≈ 0.452 µM); in experiment [4], not above 0.0078 µg/mL; in experiment [5] it was 0.125 µg/mL (≈ 0.226 µM); in experiment [6], 0.125 µg/mL (≈ 0.226 µM). In addition, the MIC in [7] is 0.125 µg/mL (≈ 0.226 µM); in experiment [8], 0.5 µg/mL (≈ 0.903 µM); in experiment [9], 0.016 µg/mL (≈ 0.0289 µM); in experiment [10], not above 0.0078 µg/mL; in experiment [11], 0.031 µg/mL (≈ 0.056 µM); in experiment [12], 0.25 µg/mL (≈ 0.452 µM). The MIC came out at 0.25 µg/mL (≈ 0.452 µM) in experiment [13], 1 µg/mL (≈ 1.81 µM) in experiment [14], 0.031 µg/mL (≈ 0.056 µM) in [15] and 0.031 µg/mL (≈ 0.056 µM) in [16]. Besides, the Ratio in [17] is given as 256.
Turning to `O=C1c2cccnc2C(=O)c2c1c(C(=O)OCCCCCCN1CCCCC1)c1ccc(Br)cn21`, the MIC stood at 0.063 µg/mL (≈ 0.117 µM) in [1]; 0.063 µg/mL (≈ 0.117 µM) in experiment [2]; 0.125 µg/mL (≈ 0.232 µM) in experiment [3]; 0.063 µg/mL (≈ 0.117 µM) in [4]; 0.031 µg/mL (≈ 0.0576 µM) in [5]; 0.063 µg/mL (≈ 0.117 µM) in experiment [6]. The MIC worked out at 0.063 µg/mL (≈ 0.117 µM) in [7]; 0.125 µg/mL (≈ 0.232 µM) in [8]; 0.063 µg/mL (≈ 0.117 µM) in experiment [9]; 0.031 µg/mL (≈ 0.0576 µM) in experiment [10]; 0.031 µg/mL (≈ 0.0576 µM) in experiment [11]; 0.063 µg/mL (≈ 0.117 µM) in experiment [12]. In addition, the minimum inhibitory concentration (MIC) is 0.125 µg/mL (≈ 0.232 µM) in experiment [13], 0.063 µg/mL (≈ 0.117 µM) in [14], 0.031 µg/mL (≈ 0.0576 µM) in experiment [15] and not above 0.0078 µg/mL in [16]. Also, the Ratio in experiment [18] and in experiment [19] was 16 throughout.
For `O=C1c2cccnc2C(=O)c2c1c(C(=O)OCCCCCCN1CCOCC1)c1ccc(Br)cn21`, the MIC in experiment [1], in experiment [2], in experiment [3], in experiment [4], in experiment [5] and in [6] was not above 0.0078 µg/mL throughout. Besides, the MIC in [7], in experiment [8], in experiment [9], in experiment [10], in experiment [11] and in [12] was not above 0.0078 µg/mL in each case. The minimum inhibitory concentration (MIC) in experiment [13], in experiment [14], in experiment [15] and in experiment [16] was not above 0.0078 µg/mL each time. Further, in experiment [17], the Ratio was found to be 256.
